In series [1] the target is T1, HDAC9 (Homo sapiens, UniProt Q9UKV0).
T1 construct: The full-length human HDACs were recombinantly expressed and purified from SF9 insect cells; host or cells: SF9 insect cells
The series is described as follows: HDAC EMSA activity assay (Nanosyn). Format: biochemical. Here is the method:
(§1) The full-length human HDACs were recombinantly expressed and purified from SF9 insect cells. All compounds were serially prediluted in DMSO from a top concentration of 10 or 1 μM and introduced into the 384-well plates through an acoustic dispenser (Labcyte550) into the reaction buffer (100 mM HEPES, pH 7.5, 25 mM KCl, 0.1% BSA, 0.01% Triton X-100, and enzyme). The total concentration of DMSO was 1% in all wells. The deacetylation reaction was initiated by introduction of a FAM-labeled acetylated peptide substrate. The reaction was monitored through the change in the relative fluorescence intensity of the substrate and product peaks. The activity was determined as the product sum ratio (PSR): P/(S + P), where P = product peak height and S = substrate peak height. […] Inhibition curves (Pinh vs inhibitor concentration) were fitted by a four-parameter sigmoid dose–response model using XLfit software (IDBS) to determine the IC50 values.

For series [2], the target named is T2, HDAC7 (Homo sapiens, UniProt Q8WUI4).
T2 construct: The full-length human HDACs were recombinantly expressed and purified from SF9 insect cells; host or cells: SF9 insect cells
T2 sequence (Q8WUI4 whole entry): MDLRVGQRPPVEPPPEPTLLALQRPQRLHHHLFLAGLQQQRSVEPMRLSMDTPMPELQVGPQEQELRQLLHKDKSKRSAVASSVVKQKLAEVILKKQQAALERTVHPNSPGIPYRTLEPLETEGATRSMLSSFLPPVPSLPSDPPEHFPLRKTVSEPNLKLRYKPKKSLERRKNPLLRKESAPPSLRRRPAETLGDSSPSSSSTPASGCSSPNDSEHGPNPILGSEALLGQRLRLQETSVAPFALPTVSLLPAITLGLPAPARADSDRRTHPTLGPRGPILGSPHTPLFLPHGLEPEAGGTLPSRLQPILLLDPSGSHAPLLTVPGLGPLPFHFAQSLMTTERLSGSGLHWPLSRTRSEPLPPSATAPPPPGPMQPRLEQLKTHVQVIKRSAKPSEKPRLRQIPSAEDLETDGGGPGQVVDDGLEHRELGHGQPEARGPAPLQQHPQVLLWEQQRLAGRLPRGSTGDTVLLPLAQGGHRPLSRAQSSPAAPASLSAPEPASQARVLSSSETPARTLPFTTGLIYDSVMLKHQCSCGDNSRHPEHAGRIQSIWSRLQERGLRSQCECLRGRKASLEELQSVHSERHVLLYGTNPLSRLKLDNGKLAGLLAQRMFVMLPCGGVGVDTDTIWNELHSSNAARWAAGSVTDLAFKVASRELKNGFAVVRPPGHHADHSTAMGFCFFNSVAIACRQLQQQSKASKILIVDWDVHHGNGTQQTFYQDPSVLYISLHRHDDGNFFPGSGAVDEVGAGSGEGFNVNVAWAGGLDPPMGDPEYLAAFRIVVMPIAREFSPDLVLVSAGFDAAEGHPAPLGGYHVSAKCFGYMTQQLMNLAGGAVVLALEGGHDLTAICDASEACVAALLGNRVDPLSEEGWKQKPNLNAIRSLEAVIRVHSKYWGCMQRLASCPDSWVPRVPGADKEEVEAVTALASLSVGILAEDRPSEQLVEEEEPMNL
Description: HDAC EMSA activity assay (Nanosyn). Format: biochemical. The protocol: as §1
On the technique in general: In EMSA bound probe runs differently from free probe, usually more slowly.

For series [3], the target named is T3, HDAC10 (Homo sapiens, UniProt Q969S8).
T3 construct: The full-length human HDACs were recombinantly expressed and purified from SF9 insect cells; host or cells: SF9 insect cells
T3 sequence (Q969S8 whole entry): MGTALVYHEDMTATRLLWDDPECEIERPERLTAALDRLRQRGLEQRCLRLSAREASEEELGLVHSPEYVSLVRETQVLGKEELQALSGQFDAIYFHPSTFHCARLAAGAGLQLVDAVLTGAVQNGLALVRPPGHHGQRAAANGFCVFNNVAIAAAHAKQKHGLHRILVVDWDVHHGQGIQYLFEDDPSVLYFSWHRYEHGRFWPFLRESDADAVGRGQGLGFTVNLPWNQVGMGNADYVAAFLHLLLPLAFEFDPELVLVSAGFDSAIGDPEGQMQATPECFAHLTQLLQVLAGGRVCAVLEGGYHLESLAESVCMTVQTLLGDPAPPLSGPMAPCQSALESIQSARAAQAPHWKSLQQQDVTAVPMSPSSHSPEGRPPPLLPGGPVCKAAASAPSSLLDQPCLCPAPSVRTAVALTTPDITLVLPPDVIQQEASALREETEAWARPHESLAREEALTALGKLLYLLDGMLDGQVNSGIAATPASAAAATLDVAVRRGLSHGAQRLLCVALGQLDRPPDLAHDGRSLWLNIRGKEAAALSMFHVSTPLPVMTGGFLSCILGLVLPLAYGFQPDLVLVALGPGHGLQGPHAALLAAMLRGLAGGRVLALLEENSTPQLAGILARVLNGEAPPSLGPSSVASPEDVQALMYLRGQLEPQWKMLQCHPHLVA
The series is described as follows: HDAC EMSA activity assay (Nanosyn). Format: biochemical. Here is the method:
as §1

Series [4] addresses T4, HDAC5 (Homo sapiens, UniProt Q9UQL6).
T4 construct: The full-length human HDACs were recombinantly expressed and purified from SF9 insect cells; host or cells: SF9 insect cells
The series is described as follows: HDAC EMSA activity assay (Nanosyn). Format: biochemical. Here is the method:
as §1

Series [5] deals with T5, HDAC1 (Homo sapiens, UniProt Q13547).
T5 construct: The full-length human HDACs were recombinantly expressed and purified from SF9 insect cells; host or cells: SF9 insect cells
T5 sequence (Q13547 whole entry): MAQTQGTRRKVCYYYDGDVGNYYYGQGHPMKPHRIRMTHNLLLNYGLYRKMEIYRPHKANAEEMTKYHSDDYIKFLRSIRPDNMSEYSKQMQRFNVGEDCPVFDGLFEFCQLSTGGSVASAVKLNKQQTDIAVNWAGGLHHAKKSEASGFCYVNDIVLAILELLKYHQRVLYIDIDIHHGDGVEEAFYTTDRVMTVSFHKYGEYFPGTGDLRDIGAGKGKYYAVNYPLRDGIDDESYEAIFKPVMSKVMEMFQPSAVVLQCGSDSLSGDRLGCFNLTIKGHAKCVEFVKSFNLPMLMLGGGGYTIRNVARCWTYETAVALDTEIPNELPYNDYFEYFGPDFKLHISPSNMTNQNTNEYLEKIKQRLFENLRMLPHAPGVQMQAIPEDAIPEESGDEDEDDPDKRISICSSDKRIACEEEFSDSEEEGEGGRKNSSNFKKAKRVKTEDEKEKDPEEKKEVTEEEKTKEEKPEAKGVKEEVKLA
The series is described as follows: HDAC EMSA activity assay (Nanosyn). Format: biochemical. Here is the method:
as §1

The nature of series [6]: Stability in mouse plasma. Format: in vitro ADME. The settings on record: read-out: Plasma stability t1/2. Here is the method:
The plasma stability of the compounds was evaluated in mouse plasma provided from Sigma-Aldrich, Oakville, Canada. The main stock solutions of the compounds were prepared at 10 mM in DMSO, which was diluted to 100 μM in 50% acetonitrile (ACN)/50% water. Aliquots of 356.5 μL of plasma proteins were placed in a heating block and allowed to equilibrate at 37 °C for 5 min. Then, 3.5 μL of 100 μM compound solutions were added to each vial (final concentration of 1 μM). Three quality control (QC) samples at 100, 500, and 1000 nM were prepared in 0.5% ACN. The vial contents were transferred in 50 μL aliquots at time points of 0.5, 5, 10, 20, 30, and 60 mi to a 96-well autosampler plate containing 150 μL of protein precipitation solution. Ice-cold ACN containing internals standards (100 nM glyburide) were used as the protein precipitation solution. After centrifugation at 4 °C, 5500 rpm for 15 min, the supernatant was diluted in MQ water, and injected into the LC/MS/MS for quantitative analysis.
The mobile phase consisted of (A) 0.1% (v/v) formic acid in Milli-Q water; (B) 0.1% (v/v) formic acid in acetonitrile. […] Peak areas were determined from extracted ion chromatograms. The in vitro half-life (t1/2) of parent compounds were determined by regression analysis of the percent parent disappearance vs time curve.

Series [7] in a line: In vivo PK study in CD-1 male mice. The settings on record: mouse, plasma, CD-1 mice, IP, 20 mg/kg.
For series [8], the system named is MV4-11 cells. The series is described as follows: FACS apoptosis detection assay (Annexin V/PI). Format: cell-based. The settings on record: MV4-11, 18 h, listed as KT-531. Here is the method:
MV4-11 cells were prepared, dosed, and washed with cold 1× PBS. The resulting cell pellets were resuspended in 1× Binding Buffer (1 × 10^6 cell/mL) from the FITC Annexin V Apoptosis Detection Kit I (BD Pharmingen). Subsequently, the dyes annexin V (5 μL) and propidium iodide (PI, 5 μL) were added to 2.5 × 10^5 cells (250 μL). The suspension was thoroughly mixed and incubated in the dark for 15 min. Following the addition of 250 μL of 1× binding buffer, the cells were analyzed by flow cytometry within 1 h using the Cytoflex S system (Beckman Coulter).

In series [9] the test system is primary T-PLL patient samples. Description: Drug combination synergy in primary T-PLL patient samples. Format: cell-based, human. The text has this: Primary T-PLL cells were isolated from peripheral blood (PB) of 10 T-PLL patients. All patients were diagnosed according to WHO criteria based on clinical features, immunophenotyping (flow cytometry and histochemisty; including TCL1 expression), and FISH/karyotyping.[71],[72] Samples were obtained from patients under IRB-approved protocols following written informed consent according to the Declaration of Helsinki. Collection and use of patient material have been approved for research purpose by the ethics committee of the University Hospital of Cologne (EudraCT-Nr.: #2008-001421-34 and AZ11-319) and Helsinki (303/13/03/01/2011).
PB mononuclear cells (PBMCs) of T-PLL samples were obtained by density gradient centrifugation (Histopaque; Sigma-Aldrich). All drug screening in primary T-PLL patient samples were conducted as previously described.[34],[73]

The nature of series [10]: Permeability by lipid-PAMPA. Format: in vitro ADME. The settings on record: lecithin/dodecane, PBS pH 7.4, 16 h. Here is the method: A 1.8% solution (w/v) of lecithin in dodecane was added to each acceptor plate well (top), followed by application of the artificial membrane and addition of 300 μL of PBS (pH 7.4) solution to each well of the acceptor plate. Compounds were added to the donor plate and incubated at 25 °C, 60 rpm for 16 h. After incubation, aliquots of 50 μL from each acceptor well and donor plate were transferred into a 96-well plate, vortexed at 750 rpm for 100 s and centrifuged at 3220g for 20 min. Compound concentrations and effective permeability (Pe) were determined by LC/MS/MS.

Each structure is given as a SMILES string. Bounds are passed on as bounds.

The term IC50 denotes the concentration at which inhibition is half-maximal. High values mean lower potency, low ones higher potency. What is called Cmax is the highest concentration seen after dosing. As usually defined, the MRT is the average time that molecules of a dose stay in the body.

T4 sequence (Q9UQL6 whole entry): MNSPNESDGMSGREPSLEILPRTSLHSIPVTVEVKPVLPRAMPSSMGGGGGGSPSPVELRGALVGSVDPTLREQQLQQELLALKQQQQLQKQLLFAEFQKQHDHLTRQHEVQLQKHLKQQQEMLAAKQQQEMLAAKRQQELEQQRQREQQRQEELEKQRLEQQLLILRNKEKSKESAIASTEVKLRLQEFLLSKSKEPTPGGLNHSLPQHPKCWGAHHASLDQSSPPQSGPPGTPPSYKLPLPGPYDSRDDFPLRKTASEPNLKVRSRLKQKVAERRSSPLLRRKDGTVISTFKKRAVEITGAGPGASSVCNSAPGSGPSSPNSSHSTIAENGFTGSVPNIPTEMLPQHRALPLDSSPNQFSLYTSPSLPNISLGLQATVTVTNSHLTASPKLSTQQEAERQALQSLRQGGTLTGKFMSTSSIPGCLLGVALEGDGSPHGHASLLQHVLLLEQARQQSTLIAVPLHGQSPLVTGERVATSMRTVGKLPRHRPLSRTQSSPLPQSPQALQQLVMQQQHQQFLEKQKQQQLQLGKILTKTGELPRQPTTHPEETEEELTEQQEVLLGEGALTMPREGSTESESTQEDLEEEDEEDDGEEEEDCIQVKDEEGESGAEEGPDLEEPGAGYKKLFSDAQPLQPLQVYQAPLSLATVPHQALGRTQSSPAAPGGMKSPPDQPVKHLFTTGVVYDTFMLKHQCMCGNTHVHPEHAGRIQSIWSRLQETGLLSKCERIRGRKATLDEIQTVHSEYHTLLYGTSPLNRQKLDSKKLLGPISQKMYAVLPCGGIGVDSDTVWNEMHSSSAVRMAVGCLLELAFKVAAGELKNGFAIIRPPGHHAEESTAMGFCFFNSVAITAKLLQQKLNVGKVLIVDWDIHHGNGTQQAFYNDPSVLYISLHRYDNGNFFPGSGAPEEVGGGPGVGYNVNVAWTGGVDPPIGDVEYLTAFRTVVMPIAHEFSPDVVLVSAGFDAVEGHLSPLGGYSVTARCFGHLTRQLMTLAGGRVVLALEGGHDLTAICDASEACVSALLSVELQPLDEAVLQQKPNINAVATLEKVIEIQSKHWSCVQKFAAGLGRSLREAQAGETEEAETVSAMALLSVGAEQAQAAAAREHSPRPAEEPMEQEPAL
T1 sequence (Q9UKV0 whole entry): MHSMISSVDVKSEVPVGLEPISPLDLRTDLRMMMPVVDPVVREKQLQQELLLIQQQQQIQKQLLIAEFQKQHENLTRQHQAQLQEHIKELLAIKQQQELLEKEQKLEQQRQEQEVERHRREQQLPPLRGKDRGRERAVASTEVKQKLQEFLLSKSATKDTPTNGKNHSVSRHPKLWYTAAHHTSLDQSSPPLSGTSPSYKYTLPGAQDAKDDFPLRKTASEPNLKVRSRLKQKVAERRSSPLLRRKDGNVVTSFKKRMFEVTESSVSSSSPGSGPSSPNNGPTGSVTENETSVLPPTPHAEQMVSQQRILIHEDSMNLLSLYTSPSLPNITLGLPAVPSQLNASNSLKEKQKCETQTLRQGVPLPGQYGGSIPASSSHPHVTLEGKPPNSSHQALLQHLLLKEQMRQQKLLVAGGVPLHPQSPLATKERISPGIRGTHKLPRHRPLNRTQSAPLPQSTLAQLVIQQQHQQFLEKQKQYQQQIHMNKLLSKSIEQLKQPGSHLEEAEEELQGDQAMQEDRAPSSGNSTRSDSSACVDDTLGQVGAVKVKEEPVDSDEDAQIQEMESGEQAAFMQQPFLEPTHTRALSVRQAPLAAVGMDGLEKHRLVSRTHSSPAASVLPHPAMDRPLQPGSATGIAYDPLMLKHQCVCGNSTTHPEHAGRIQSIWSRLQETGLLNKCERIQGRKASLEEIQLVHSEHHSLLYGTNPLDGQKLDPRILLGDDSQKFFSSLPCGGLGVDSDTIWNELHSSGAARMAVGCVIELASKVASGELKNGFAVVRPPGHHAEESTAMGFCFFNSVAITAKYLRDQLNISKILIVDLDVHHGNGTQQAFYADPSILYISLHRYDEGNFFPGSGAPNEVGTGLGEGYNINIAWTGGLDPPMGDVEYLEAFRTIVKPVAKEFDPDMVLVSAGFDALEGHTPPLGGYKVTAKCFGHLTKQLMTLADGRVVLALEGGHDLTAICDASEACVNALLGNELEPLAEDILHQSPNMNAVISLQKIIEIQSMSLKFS

As for `O=C(NO)c1ccc(CN(C2CC2)S(=O)(=O)c2cc(F)c(F)c(F)c2F)cc1` [Compound 14, 4-(((N-Cyclopropyl-2,3,4,5-tetrafluorophenyl)sulfonamido)methyl)-N-hydroxybenzamide], the 50% inhibitory concentration (IC50) in series [1], in series [2], in series [3], in series [4] and in [5] was greater than 1000 nM throughout. Further, the half-life at 1 μM in series [6] was determined as 0.683 h. The same molecule displayed a Cmax at 24 h in series [7] of 493 ng/mL. In series [7], this molecule came in with an MRT at 24 h of 2.1 ± 0.5 h. Further, the AUC(0-t) at 24 h in series [7] (read-out: In vivo AUClast (overall exposure)) came out at 1580 ng·h/mL. For the same molecule, the half-life in [7] (read-out: In vivo t1/2) stood at 1.05 h. The “Early Apoptosis” value in series [8] (0.5 μM) was 15%. The “Late Apoptosis” value in series [8] (1 μM) was determined as 22%. Moreover, the “Healthy (nonapoptotic)” value in series [8] (2 μM) is listed as 8%. The “combination with idasanutlin, bendamustine and venetoclax” value in series [9] is recorded as “All combinations revealed synergistic relationships in patient samples”. Also, the “PAMPA -Log Pe” value turned out to be 5.44 ± 0.06 in series [10] (listed as 14 (KT-531)) and 5.44 in series [10] (listed as KT-531).

These data come from paper PMC8237267 (Journal of Medicinal Chemistry, 2021).
